In ChEMBL document CHEMBL4052756, “α-Pyrone derivatives with cytotoxic activities, from the endophytic fungus Phoma sp. YN02-P-3” (Bioorg Med Chem Lett, 2017):

What was measured:
Type in all cases: functional, cell-based
HL-60 = experiment: Cytotoxic activity against human HL60 cells
PC-3 = experiment: Cytotoxic activity against human PC3 cells
HCT-116 = experiment: Cytotoxic activity against human HCT116 cells

Row | Compound | IC50 (HL-60) [µM] | IC50 (PC-3) [µM] | IC50 (HCT-116) [µM]
1 | COC(=O)/C=C/c1oc(=O)c(COC(C)=O)c(OC)c1COC(C)=O | 0.52 | 0.98 | 1.32
2 | COc1c(C)c(/C=C/C(=O)O)oc(=O)c1C | > 50 | > 50 | > 50
3 | COC(=O)/C=C/c1oc(=O)c(CO)c(OC)c1CO | > 50 | > 50 | > 50
4 | COC(=O)/C=C/c1oc(=O)c(COC(C)=O)c(OC)c1CO | 0.65 | 1.09 | 2.31
5 | COc1c(C)c(/C=C/C(=O)O)oc(=O)c1CO | > 50 | > 50 | > 50
6 | COC(=O)C1C(c2oc(=O)c(CO)c(OC)c2CO)C(C(=O)OC)C1c1oc(=O)c(CO)c(OC)c1CO (stereo not drawn) | > 50 | > 50 | > 50
7 | COC(=O)C1C(c2oc(=O)c(COC(C)=O)c(OC)c2COC(C)=O)C(C(=O)OC)C1c1oc(=O)c(COC(C)=O)c(OC)c1COC(C)=O (stereo not drawn) | 4.56 | – | –
8 | COc1c(CO)c(/C=C/C(=O)O)oc(=O)c1CO | > 50 | > 50 | > 50
9 | COC(=O)/C=C/c1oc(=O)c(CO)c(OC)c1COC(C)=O | 1.04 | 5.9 | 9.84
10 | O=c1[nH]cc(F)c(=O)[nH]1 [FLUOROURACIL] | 2.8 | 1.6 | 17
